Reference: ChEMBL document CHEMBL1143343, “Cooperative alkylation of double-strand human telomere repeat sequences by PI polyamides with 11-base-pair recognition based on a heterotrimeric design” (Bioorg Med Chem, 2009)
pIC50: −log10 of the molar value. Active and inactive are the calls of the source. The calls are words filed in the database; no cut-off is given here.

What was measured:
Jurkat [1] = test: Cytotoxicity against human Jurkat cells after 48 hrs by WST-8 assay in presence of 10 uM distamycin A pretreated 24 hrs before compound addition; type: functional, cell-based
Jurkat [2] = test: Cytotoxicity against human Jurkat cells after 48 hrs by WST-8 assay in presence of 10 uM {3-[(4-{[4-({4-[(4-Acetylamino-1-methyl-1H-pyrrole-2-carbonyl)-amino]-1-methyl-1H-pyrrole-2-carbonyl}-amino)-1-methyl-1H-pyrrole-2-carbonyl]-amino}-1-methyl-1H-pyrrole-2-carbonyl)-amino]-propyl}-dimethyl-ammonium pretreated 24 hrs before compound addition; type: functional, cell-based
Calf thymus DNA [3] = test: Binding affinity to human telomeric repeat sequence in 219 bp calf thymus DNA fragment assessed as DNA alkylating activity at 20 to 500 nM after 12 hrs by PAGE; type: nucleic-acid assay
Calf thymus DNA [4] = test: Binding affinity to site 4 human telomeric 5'GGTTAGGGTTA3' sequence in 219 bp calf thymus DNA fragment assessed as DNA alkylating activity at 20 to 500 nM after 12 hrs by PAGE in presence of distamycin A; type: nucleic-acid assay
Calf thymus DNA [5] = test: Binding affinity to human telomeric repeat sequence in 219 bp calf thymus DNA fragment assessed as DNA alkylating activity at 200 nM after 12 hrs by PAGE in presence of {3-[(4-{[4-({4-[(4-Acetylamino-1-methyl-1H-pyrrole-2-carbonyl)-amino]-1-methyl-1H-pyrrole-2-carbonyl}-amino)-1-methyl-1H-pyrrole-2-carbonyl]-amino}-1-methyl-1H-pyrrole-2-carbonyl)-amino]-propyl}-dimethyl-ammonium; type: nucleic-acid assay
Calf thymus DNA [6] = test: (§1) Binding affinity to site 2 human telomeric 5'GGTTAGGGTTA3' sequence in 219 bp calf thymus DNA fragment assessed as DNA alkylating activity at 20 to 500 nM after 12 hrs by PAGE in presence of {3-[(4-{[4-({4-[(4-Acetylamino-1-methyl-1H-pyrrole-2-carbonyl)-amino]-1-methyl-1H-pyrrole-2-carbonyl}-amino)-1-methyl-1H-pyrrole-2-carbonyl]-amino}-1-methyl-1H-pyrrole-2-carbonyl)-amino]-propyl}-dimethyl-ammonium; type: nucleic-acid assay
Calf thymus DNA [7] = test: as §1, with “site 4” for “site 2”; type: nucleic-acid assay
Calf thymus DNA [8] = test: Binding affinity to site 2 human telomeric 5'GGTTAGGGTTA3' sequence in 219 bp calf thymus DNA fragment assessed as DNA alkylating activity at 20 to 500 nM after 12 hrs by PAGE in presence of distamycin A; type: nucleic-acid assay
Calf thymus DNA [9] = test: Binding affinity to human telomeric repeat sequence in 219 bp calf thymus DNA fragment assessed as DNA alkylating activity at 200 nM after 12 hrs by PAGE in presence of distamycin A; type: nucleic-acid assay
Calf thymus DNA [10] = test: Binding affinity to site 3 human telomeric 5'GGTTAGGGTTA3' sequence in 219 bp calf thymus DNA fragment assessed as DNA alkylating activity at 20 to 500 nM after 12 hrs by PAGE in presence of distamycin A; type: nucleic-acid assay
Calf thymus DNA [11] = test: as §1, with “site 3” for “site 2”; type: nucleic-acid assay
Jurkat [12] = test: Cytotoxicity against human Jurkat cells after 48 hrs by WST-8 assay; type: functional, cell-based
Calf thymus DNA [13] = test: Binding affinity to human telomeric repeat sequence in 219 bp calf thymus DNA fragment assessed as DNA alkylating activity at 20 to 500 nM after 12 hrs by PAGE in presence of 3-(4-(4-(4-(3-(3-(4-(4-(4-(4-acetamido-1-methyl-1H-pyrrole-2-carboxamido)-1-methyl-1H-pyrrole-2-carboxamido)-1-methyl-1H-pyrrole-2-carboxamido)-1-methyl-1H-pyrrole-2-carboxamido)propanamido)propanamido)-1-methyl-1H-pyrrole-2-carboxamido)-1-methyl-1H-pyrrole-2-carboxamido)-1-methyl-1H-pyrrole-2-carboxamido)-N,N-dimethylpropan-1-aminium; type: nucleic-acid assay

Activity (Calf thymus DNA [3]): inactive
Activity (Calf thymus DNA [4]): Active
Activity (Calf thymus DNA [5]): Active
Activity (Calf thymus DNA [6]): Active
Activity (Calf thymus DNA [7]): Active
Activity (Calf thymus DNA [8]): Active
Activity (Calf thymus DNA [9]): Active
Activity (Calf thymus DNA [10]): Active
Activity (Calf thymus DNA [11]): Active
Activity (Calf thymus DNA [13]): Active
SMILES: CC(=O)Nc1cn(C)c(C(=O)Nc2cn(C)c(C(=O)Nc3cn(C)c(C(=O)NCCC(=O)NCCC(=O)Nc4cn(C)c(C(=O)Nc5cn(C)c(C(=O)Nc6cn(C)c(C(=O)Nc7ccc8[nH]c(C(=O)N9CC(CCl)c%10c9cc(O)c9ccccc%109)cc8c7)n6)n5)n4)n3)n2)n1 (stereo not drawn)
pIC50 (Jurkat [1]): 7.49
pIC50 (Jurkat [2]): 7.10
pIC50 (Jurkat [12]): 7.00
